PubChem BioAssay (NCI)
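How tested: cells in 96-well plates exposed to compound for 48 hours at five concentrations. TGI: concentration producing complete growth inhibition.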

How the values were obtained:
Test in all cases: NCI tumour cell line growth inhibition, 48 h
[1] = system: 786-0 renal
[2] = system: A498 renal
[3] = system: BT-549 breast
[4] = system: DU-145 prostate
[5] = system: EKVX NSCLC
[6] = system: HCT-15 colon
[7] = system: HOP-62 NSCLC
[8] = system: MOLT-4 leukemia
[9] = system: NCI-H226 lung
[10] = system: RPMI-8226 leukemia
[11] = system: RXF 393 renal
[12] = system: SK-MEL-28 melanoma
[13] = system: SK-OV-3 ovarian
[14] = system: SR leukemia
[15] = system: U251 CNS
[16] = system: UACC-62 melanoma
[17] = system: HT29 colon

Structure (SMILES)	TGI [1] [µM]	TGI [2] [µM]	TGI [3] [µM]	TGI [4] [µM]	TGI [5] [µM]	TGI [6] [µM]	TGI [7] [µM]	TGI [8] [µM]	TGI [9] [µM]	TGI [10] [µM]	TGI [11] [µM]	TGI [12] [µM]	TGI [13] [µM]	TGI [14] [µM]	TGI [15] [µM]	TGI [16] [µM]	TGI [17] [µM]
CCOC(=O)N1CC2(C(=O)OC)C=CC1C(C(=O)OC)C2 (centres undefined)	> 100	> 100	> 100	> 100	> 100	> 100	> 100	> 100	> 100	> 100	> 100	> 100	> 100	> 100	> 100	> 100	–
O=C(CC(=O)N(C(=O)c1ccccc1)c1ccc(Cl)cc1)N/N=C\c1ccccc1O	> 100	> 100	> 100	> 100	> 100	> 100	89.2	> 100	> 100	> 100	> 100	> 100	54.3	> 100	> 100	–	> 100
COc1ccc(-c2nc(N)c(C#N)c3c2CCSc2ccc(C)cc2-3)cc1OC	> 61.1	> 63.2	70.8	> 67.2	> 85.3	> 73.1	> 100	25.1	> 70.9	7.09	> 100	> 81.8	> 95.1	18.1	> 100	47.1	> 53.1
Cn1c(=O)oc2cc(C(=S)N3CCC(Cc4ccccc4)CC3)ccc21	> 100	> 100	> 100	> 100	> 100	> 100	> 100	> 100	> 100	> 100	> 100	> 100	> 100	> 100	> 100	> 100	> 100
C[C@@H]1CCC2[C@@H](C)[C@H](O[C@H]3O[C@@H]4O[C@@]5(C)CCC6[C@H](C)CCC([C@H]3C)[C@]64OO5)O[C@@H]3O[C@@]4(C)CCC1[C@@]23OO4 (some centres undefined)	18	9.51	14.7	19.5	18.7	12.4	25.5	15	34.1	1.46	21.4	27.3	41.7	1.28	23.8	15.9	13.4
O=c1c2c(sc3ccccc13)NCN(CCc1ccccc1)C2	> 100	> 100	> 100	> 100	> 100	–	> 100	80.2	> 100	43	> 100	> 100	> 100	> 100	> 100	> 100	53.8
CC1=NN(c2nc(N)nc(C(C)Sc3cc(Cl)c(C)cc3S(N)(=O)=O)n2)C(C)(C)C1 (centres undefined)	> 10	> 10	> 10	> 10	> 10	> 10	> 10	> 10	> 10	> 10	> 10	> 10	> 10	> 10	> 10	–	> 10
Brc1ccccc1/C=C\C1(c2ccccc2)OCCO1	24.3	25.9	39	26.7	30.6	19.5	27.7	9.23	38.2	6.78	27.7	46.9	26.5	8.33	18.4	28	19
CCCCOP(=O)(OCCCC)/C(C#N)=C/c1ccc(C)o1	> 100	> 100	43	> 100	> 100	> 100	> 100	> 100	78.8	> 100	86.1	> 100	> 100	> 100	> 100	> 100	> 100
CN(C)CCSC(=Nc1ccccc1)N1C=COC=C1	38.9	> 100	> 100	> 100	> 100	47.4	> 100	> 100	> 75.6	> 100	72.8	40.4	> 100	> 100	> 100	30.9	> 100
O=C(O)CN1CCNCCN(CC(=O)O)CCNCC1	> 100	> 100	> 100	> 100	> 100	> 74.7	> 100	> 100	> 100	> 100	> 100	–	> 100	> 96.5	> 100	> 100	> 100
O=c1n(CCCN2CCN(c3cccc(Cl)c3)CC2)nc2n1-c1ccc3ccccc3c1SC2	> 100	> 100	> 100	> 100	> 100	> 100	> 100	> 100	> 100	> 100	> 100	> 100	> 100	> 100	> 100	> 100	> 100
